Laboratory results taken from patent US10300052B2, “Methods for increasing CFTR activity” (THE UAB RESEARCH FOUNDATION, priority 2012, dated 2019).

System: porcine trachea CFTR−/−
Assay: μOCT imaging of airway epithelial function in porcine trachea, CFTR-/- animals
Conditions: sequential ivacaftor 10 μM, forskolin 100 nM, acetylcholine 100 μM in bath, 37° C. (FIG. 7G)
Description: FIGS. 7A-7H show the effects of CFTR activators on airway epithelial function in intact porcine trachea by μOCT. FIGS. 7A-7B show representative μOCT images for a CFTR−/− (FIG. 7A) and CFTR+/+ (FIG. 7B) animal. FIGS. 7C-7F, respectively, show ASL depth (FIG. 7C), PCL depth (FIG. 7D), CBF (FIG. 7E) and MCT (FIG. 7F) measurements derived from μOCT images from CFTR−/− and CFTR+/+ animals. FIGS. 7G and 7H show the response of epithelial functional parameters, namely ASL depth and MCT in CFTR−/− (FIG. 7G) and CFTR+/+(FIG. 7H) animals in response to sequential pharmacologic intervention by ivacaftor (10 μM), forskolin (100 nM) and acetylcholine (100 μM).
To further investigate the role of CFTR activators in modulating airway epithelial cell function, CFTR activators were studied in combination with porcine trachea. In this example, porcine trachea from animals having a mutated CFTR (CFTR (−/−) and from animals having a WT-CFTR (CFTR+/+) were evaluated for ASL depth, PCL depth, CBF and MCT. The results are shown in FIGS. 7A-7H.
FIGS. 7G and 7H show the response of epithelial functional parameters, namely ASL depth, CBF and MCT in CFTR−/− and CFTR+/+ animals in response to sequential pharmacologic intervention by ivacaftor (10 μM), forskolin (100 nM) and acetylcholine (100 μM); in this experiment, acetylcholine served as a positive control to induce glandular extrusion in CF tissue). In these experiments, agonists were added to the bath solution and all experiments were conducted under physiological conditions (37° C. and 100% humidity). […] In contrast to FIG. 7G, ASL depth, CBF and MCT were all increased in response to ivacaftor treatment in CFTR+/+ animals, consistent with the results described above for human tissue.
Normal piglet tracheas were obtained from Exemplar Genetics (Sioux Center, Iowa). Tissue were dissected from one-day-old piglets and shipped on wet ice in DMEM. A modified protocol based on airway tissue handling and preparation methods developed by Ballard et al. (Am J Physiol Lung Cell Mol Physiol 298: L270-276, 2010) was employed. Tracheas were immersed in 80 mL Ringer bicarbonate solution (KRB) baths at room temperature and slowly warmed to 37° C. After four hours of pretreatment, the tracheas were removed from the KRB. Accessible mucus and liquid were aspirated from the airway lumens and the tracheal ends were cannulated so that the serosal surface was bathed in KRB [29] without contacting the mucosal surface, as previously described (Ballard et al., Am J Physiol Lung Cell Mol Physiol 298: L270-276, 2010; Martens, et al., Am J Physiol Lung Cell Mol Physiol 301: L236-246, 2011). Tracheas were allowed to equilibrate in KRB bubbled with 95% 02 and 5% CO2 at 37° C. and the luminal side exposed to conditioned air at 100% humidity for 2 hours prior to mOCT imaging (Sleigh et al., Comp Biochem Physiol A Comp Physiol 94: 359-364, 1989).
The μOCT system is a spectral-domain OCT implementation with several improvements to standard OCT that yield high resolution in both lateral and axial directions. The general layout and axial resolution characterization have been described (Liu et al., PLOSOne, 8(1), E54473-2013). A super-continuum source (Fianium SC450) provides the high-bandwidth, short coherence length light necessary for high axial resolution ([…]). A typical OCT system includes an interferometer with the reference and sample arms intersecting at a beamsplitter. The beamsplitter is replaced in μOCT with a 45 degree rod mirror, which apodizes the sample beam by introducing a circular obscuration in the center to achieve a balance of good lateral resolution (2 μm) and long depth of focus (0.2 mm). Custom software is employed to control the galvanometer scanning motors while acquiring spectral data from the line camera. […]

C=C[C@@]1(C)CC(=O)[C@]2(O)[C@@]3(C)[C@@H](O)CCC(C)(C)[C@@H]3[C@H](O)[C@H](OC(C)=O)[C@@]2(C)O1 [forskolin]
no response: ASL depth response | CBF response | MCT response
